From US20200393397A1, “DEVICE FOR PERFORMING ELECTRICAL MEASUREMENTS” (Mimetas B.V., priority 2018, published 2020)

System: Caco-2 tubules
Experiment: TEER measurement of Caco-2 tubules in 2-lane Organoplate during staurosporine exposure
Assay type: cell-based, human
Protocol: Day 0: Collagen-1 gel was injected into one of the channels (gel channel) of a 2-lane Organoplate. After curing of the gel, Caco-2 cells (Sigma, human colon carcinoma cells) in culture medium were seeded in the other channel (perfusion channel) and allowed to proliferate. Culture medium was refreshed daily. […] Following this protocol, 40 chips, comprising a gel channel and a perfusion channel separated by a phaseguide, were seeded with Caco-2 cells, meaning that 40 tubules were grown simultaneously in a single 2-lane Organoplate. The method of culturing cells in this system is similar to the one described by Trietsch et al (Nature Communications, volume 8, Article number: 262(2017), doi:10.1038/s41467-017-00259-3).
A TEER measurement was performed daily at days 1 to 11. To this end, gold plated electrodes were inserted into the access wells of the gel and perfusion channel. For 5 to 10 seconds per chip, impedance spectra were recorded at frequencies ranging logarithmically from 10 Hz to 1 MHz.
At day 5, the 40 Caco-2 tubules were exposed to different concentrations of staurosporine (Sigma, S4400) for 12 hours.

SMILES: CN[C@@H]1C[C@H]2O[C@@](C)([C@@H]1OC)n1c3ccccc3c3c4c(c5c6ccccc6n2c5c31)C(=O)NC4 [staurosporine]
- effect on the TEER (day 5, concentration of 47 nM, 12 hours exposure (FIG. 8)): an effect on the TEER can be observed
- effect on the TEER values (day 5, exposure to different concentrations for 12 hours (FIG. 8)): concentration dependent effect
